Measured values reported in ChEMBL document CHEMBL3526033, “Identification of human liver cytochrome P450 enzymes involved in the metabolism of SCH 530348 (Vorapaxar), a potent oral thrombin protease-activated receptor 1 antagonist” (Drug Metab Dispos, 2011).
One block for each compound: values may come before it.

How the values were obtained:
Cytochrome P450 1A2 = molecular target: T1, Cytochrome P450 1A2 (Homo sapiens, UniProt P05177); assay: Activity of human recombinant CYP1A2 assessed as enzyme-mediated (3R,3aS,4S,4aR,7R,8aR,9aR)-7-amino-4-((E)-2-(5-(3-fluorophenyl)pyridin-2-yl)vinyl)-3-methyldecahydronaphtho[2,3-c]furan-1(3H)-one formation at 25 uM after 120 mins by LC-MS/MS analysis in presence of NADPH; assay type: ADME; details: 2 h
T1 sequence (P05177 whole entry): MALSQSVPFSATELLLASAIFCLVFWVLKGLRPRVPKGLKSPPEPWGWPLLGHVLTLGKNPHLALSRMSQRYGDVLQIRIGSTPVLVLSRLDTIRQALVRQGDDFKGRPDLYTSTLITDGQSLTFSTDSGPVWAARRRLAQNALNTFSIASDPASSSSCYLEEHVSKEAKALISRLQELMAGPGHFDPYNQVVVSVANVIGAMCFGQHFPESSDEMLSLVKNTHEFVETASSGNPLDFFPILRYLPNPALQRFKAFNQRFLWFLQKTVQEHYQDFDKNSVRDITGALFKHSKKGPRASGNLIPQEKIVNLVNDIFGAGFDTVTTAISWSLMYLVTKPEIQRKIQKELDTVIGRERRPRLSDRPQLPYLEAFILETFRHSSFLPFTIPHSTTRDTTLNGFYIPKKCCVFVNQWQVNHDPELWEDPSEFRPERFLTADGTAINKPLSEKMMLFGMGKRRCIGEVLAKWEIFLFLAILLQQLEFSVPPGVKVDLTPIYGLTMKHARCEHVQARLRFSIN

Cytochrome P450 4F3 = molecular target: T2, Cytochrome P450 4F3 (Homo sapiens, UniProt Q08477); assay: Activity of human recombinant CYP4F3A assessed as enzyme-mediated (3R,3aS,4S,4aR,7R,8aR,9aR)-7-amino-4-((E)-2-(5-(3-fluorophenyl)pyridin-2-yl)vinyl)-3-methyldecahydronaphtho[2,3-c]furan-1(3H)-one formation at 25 uM after 120 mins by LC-MS/MS analysis in presence of NADPH; assay type: ADME; details: 2 h
T2 sequence (Q08477 whole entry): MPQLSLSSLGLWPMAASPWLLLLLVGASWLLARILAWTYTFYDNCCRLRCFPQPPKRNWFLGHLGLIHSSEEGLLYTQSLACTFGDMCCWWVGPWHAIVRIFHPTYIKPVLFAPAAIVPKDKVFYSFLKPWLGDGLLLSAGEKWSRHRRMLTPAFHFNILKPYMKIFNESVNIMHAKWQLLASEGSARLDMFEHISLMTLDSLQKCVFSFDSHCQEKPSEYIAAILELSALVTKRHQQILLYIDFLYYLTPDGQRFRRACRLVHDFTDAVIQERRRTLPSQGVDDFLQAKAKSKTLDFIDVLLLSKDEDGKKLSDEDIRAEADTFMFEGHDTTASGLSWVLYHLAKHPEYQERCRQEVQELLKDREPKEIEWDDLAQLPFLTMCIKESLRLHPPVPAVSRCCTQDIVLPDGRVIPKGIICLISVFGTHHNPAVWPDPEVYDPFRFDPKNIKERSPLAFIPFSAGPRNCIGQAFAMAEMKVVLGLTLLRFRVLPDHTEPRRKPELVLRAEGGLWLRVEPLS

Cytochrome P450 2D6 = Cytochrome P450 2D6 (Homo sapiens, UniProt P10635); assay: Activity of human recombinant CYP2D6 assessed as enzyme-mediated drug metabolism treated with 25 uM vorapaxar after 120 mins by LC-MS/MS analysis in presence of NADPH; assay type: ADME; details: 2 h
Cytochrome P450 2B6 = molecular target: T3, Cytochrome P450 2B6 (Homo sapiens, UniProt P20813); assay: Activity of human recombinant CYP2B6 assessed as enzyme-mediated drug metabolism treated with 25 uM vorapaxar after 120 mins by LC-MS/MS analysis in presence of NADPH; assay type: ADME; details: 2 h
T3 sequence (P20813 whole entry): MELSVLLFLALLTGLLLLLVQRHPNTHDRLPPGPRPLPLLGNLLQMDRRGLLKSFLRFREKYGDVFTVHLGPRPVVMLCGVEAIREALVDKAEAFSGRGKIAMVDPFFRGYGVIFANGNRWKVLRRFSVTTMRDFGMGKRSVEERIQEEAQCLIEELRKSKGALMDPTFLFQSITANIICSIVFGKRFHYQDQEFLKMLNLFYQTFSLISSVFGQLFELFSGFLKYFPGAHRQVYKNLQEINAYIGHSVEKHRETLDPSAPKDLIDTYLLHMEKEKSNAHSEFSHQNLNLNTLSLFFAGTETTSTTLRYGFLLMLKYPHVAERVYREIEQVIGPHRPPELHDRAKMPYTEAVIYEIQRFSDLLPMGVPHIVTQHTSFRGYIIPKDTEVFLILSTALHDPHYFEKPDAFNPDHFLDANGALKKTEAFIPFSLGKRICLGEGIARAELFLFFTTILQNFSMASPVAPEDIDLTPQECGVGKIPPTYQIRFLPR

Cytochrome P450 2C18 = Cytochrome P450 2C18 (Homo sapiens, UniProt P33260); assay: Activity of human recombinant CYP2C18 assessed as enzyme-mediated drug metabolism treated with 25 uM vorapaxar after 120 mins by LC-MS/MS analysis in presence of NADPH; assay type: ADME; details: 2 h
Liver microsome [1] = assay: Drug metabolism in human liver microsomes assessed as 2-hydroxyethyl (1R,3aR,4aR,6R,8aR,9S,9aS)-9-((E)-2-(5-(3-fluorophenyl)pyridin-2-yl)vinyl)-1-methyl-3-oxododecahydronaphtho[2,3-c]furan-6-ylcarbamate formation at 25 uM after 120 mins by LC-MS/MS analysis in presence of astemizole; assay type: ADME; details: 2 h
Liver microsome [2] = assay: Drug metabolism in human liver microsomes assessed as (3R,3aS,4S,4aR,7R,8aR,9aR)-7-amino-4-((E)-2-(5-(3-fluorophenyl)pyridin-2-yl)vinyl)-3-methyldecahydronaphtho[2,3-c]furan-1(3H)-one formation at 10 to 25 uM after 120 mins by LC-MS/MS analysis in presence of quinidine; assay type: ADME; details: 2 h
Liver microsome [3] = assay: Drug metabolism in human liver microsomes assessed as (3R,3aS,4S,4aR,7R,8aR,9aR)-7-amino-4-((E)-2-(5-(3-fluorophenyl)pyridin-2-yl)vinyl)-3-methyldecahydronaphtho[2,3-c]furan-1(3H)-one formation at 10 to 25 uM after 120 mins by LC-MS/MS analysis in presence of tranylcypromine; assay type: ADME; details: 2 h
CYP3A5 = CYP3A5 (Homo sapiens, UniProt P20815); assay: Activity of human recombinant CYP3A5 assessed as enzyme-mediated drug metabolism at 10 uM after 120 mins by LC-MS/MS analysis in presence of NADPH; assay type: ADME; details: read-out: Compound recovery
Cytochrome P450 3A4 = Cytochrome P450 3A4 (Homo sapiens, UniProt P08684); assay: Activity of human recombinant CYP3A4 assessed as enzyme-mediated ((4aR,6R)-9-{2-[(1R,4S)-5-((S)-3-Fluoro-phenyl)-pyridin-2-yl]-vinyl}-1-methyl-3-oxo-dodecahydro-naphtho[2,3-c]furan-6-yl)-carbamic acid(R)-2-hydroxy-ethyl ester formation at 10 uM after 120 mins by LC-MS/MS analysis in presence of astemizole; assay type: ADME; details: 2 h
[4] = Drug metabolism in human liver S9 fraction assessed as compound remaining at 10 uM after 120 mins by LC-MS/MS analysis in presence of NADPH; assay type: ADME, subcellular; details: read-out: Compound recovery
CYP2D6 = CYP2D6 (Homo sapiens, UniProt P10635); assay: Activity of human recombinant CYP2D6 assessed as enzyme-mediated drug metabolism at 10 uM after 120 mins by LC-MS/MS analysis in presence of NADPH; assay type: ADME; details: read-out: Compound recovery
Sequence of CYP2D6 (P10635 whole entry): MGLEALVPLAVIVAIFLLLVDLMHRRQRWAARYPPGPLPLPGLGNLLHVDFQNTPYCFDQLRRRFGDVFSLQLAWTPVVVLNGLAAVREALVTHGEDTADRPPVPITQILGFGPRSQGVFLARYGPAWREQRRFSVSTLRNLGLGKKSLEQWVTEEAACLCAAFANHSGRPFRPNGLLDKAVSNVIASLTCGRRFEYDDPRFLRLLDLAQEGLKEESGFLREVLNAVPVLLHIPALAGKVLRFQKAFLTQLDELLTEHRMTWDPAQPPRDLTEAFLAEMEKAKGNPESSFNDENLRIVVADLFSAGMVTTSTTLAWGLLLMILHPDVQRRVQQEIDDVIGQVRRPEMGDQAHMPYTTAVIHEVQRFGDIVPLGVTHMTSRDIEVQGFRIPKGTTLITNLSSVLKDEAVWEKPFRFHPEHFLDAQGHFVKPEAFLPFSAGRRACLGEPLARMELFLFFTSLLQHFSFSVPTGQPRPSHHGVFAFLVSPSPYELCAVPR

Sequence of CYP3A5 (P20815 whole entry): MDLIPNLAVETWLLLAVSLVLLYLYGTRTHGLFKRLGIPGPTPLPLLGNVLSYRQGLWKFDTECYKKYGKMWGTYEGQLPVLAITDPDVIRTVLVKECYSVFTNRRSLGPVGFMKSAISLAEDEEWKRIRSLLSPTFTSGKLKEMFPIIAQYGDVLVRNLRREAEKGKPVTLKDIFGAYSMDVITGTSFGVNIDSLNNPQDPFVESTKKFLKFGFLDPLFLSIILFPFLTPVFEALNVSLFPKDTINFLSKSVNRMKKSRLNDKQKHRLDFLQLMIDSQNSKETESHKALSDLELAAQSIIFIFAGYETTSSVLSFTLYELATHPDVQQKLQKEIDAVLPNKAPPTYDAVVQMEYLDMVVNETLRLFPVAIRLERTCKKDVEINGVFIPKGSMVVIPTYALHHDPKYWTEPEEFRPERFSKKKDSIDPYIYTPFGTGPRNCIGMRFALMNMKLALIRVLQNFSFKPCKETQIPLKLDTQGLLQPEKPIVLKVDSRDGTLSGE
Sequence of Cytochrome P450 3A4 (P08684 whole entry): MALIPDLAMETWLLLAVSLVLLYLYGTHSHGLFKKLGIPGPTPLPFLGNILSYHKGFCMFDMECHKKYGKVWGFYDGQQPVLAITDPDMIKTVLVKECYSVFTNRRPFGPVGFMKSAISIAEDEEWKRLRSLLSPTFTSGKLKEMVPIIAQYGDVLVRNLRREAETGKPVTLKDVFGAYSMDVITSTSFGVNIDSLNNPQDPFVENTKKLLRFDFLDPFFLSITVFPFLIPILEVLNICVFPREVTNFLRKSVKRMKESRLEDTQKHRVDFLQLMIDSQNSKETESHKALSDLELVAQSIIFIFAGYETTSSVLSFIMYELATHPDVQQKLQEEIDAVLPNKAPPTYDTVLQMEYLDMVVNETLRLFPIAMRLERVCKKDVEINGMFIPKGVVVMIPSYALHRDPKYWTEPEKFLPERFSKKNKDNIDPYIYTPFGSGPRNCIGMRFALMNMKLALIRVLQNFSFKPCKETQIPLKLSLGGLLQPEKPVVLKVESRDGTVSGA
Sequence of Cytochrome P450 2C18 (P33260 whole entry): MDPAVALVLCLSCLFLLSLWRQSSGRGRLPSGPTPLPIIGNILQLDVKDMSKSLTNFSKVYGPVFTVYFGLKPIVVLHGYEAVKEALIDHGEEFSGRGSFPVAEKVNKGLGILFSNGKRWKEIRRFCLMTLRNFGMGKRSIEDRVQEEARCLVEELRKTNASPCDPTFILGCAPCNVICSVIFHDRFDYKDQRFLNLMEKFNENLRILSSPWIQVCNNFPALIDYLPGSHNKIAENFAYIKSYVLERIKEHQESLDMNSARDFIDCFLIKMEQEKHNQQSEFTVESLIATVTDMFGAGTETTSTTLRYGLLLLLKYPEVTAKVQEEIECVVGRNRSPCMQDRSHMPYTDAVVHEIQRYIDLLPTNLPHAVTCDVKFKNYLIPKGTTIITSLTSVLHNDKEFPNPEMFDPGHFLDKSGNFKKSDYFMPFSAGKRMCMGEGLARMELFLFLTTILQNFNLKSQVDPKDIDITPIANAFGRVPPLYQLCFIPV
Sequence of Cytochrome P450 2D6 (P10635 whole entry): as the sequence (P10635 whole entry) above

Drug metabolism (Cytochrome P450 1A2): metabolite_detected | Drug metabolism (Cytochrome P450 4F3): metabolite_detected
SMILES: CCOC(=O)N[C@@H]1CC[C@@H]2[C@@H](C1)C[C@H]1C(=O)O[C@H](C)[C@H]1[C@H]2/C=[14CH]/c1ccc(-c2cccc(F)c2)cn1

Drug metabolism (Cytochrome P450 2D6): metabolite_detected | Drug metabolism (Cytochrome P450 2B6): metabolite_detected | Drug metabolism (Cytochrome P450 2C18): metabolite_detected
SMILES: C[C@H]1OC(=O)[C@@H]2C[C@@H]3C[C@H](NC(=O)OCCO)CC[C@H]3[C@H](/C=C/c3ccc(-c4cccc(F)c4)cn3)[C@H]12

Drug metabolism (Liver microsome [1]): metabolite_not_detected | Drug metabolism (Liver microsome [2]): metabolite_detected | Drug metabolism (Liver microsome [3]): metabolite_not_detected | remaining at 2 h, 10 µM (CYP3A5): 93.9% | inhibition (INH) (Cytochrome P450 3A4): 76% | remaining at 2 h, 10 µM [4]: 95.7% | remaining at 2 h, 10 µM (CYP2D6): 98.1%
SMILES: CCOC(=O)N[C@@H]1CC[C@@H]2[C@@H](C1)C[C@H]1C(=O)O[C@H](C)[C@H]1[C@H]2/C=C/c1ccc(-c2cccc(F)c2)cn1 [VORAPAXAR]
